Where “and” joins values, the source holds several entries; their conditions need not be identical. Identical values can stand only once. Entries after “also recorded” stand apart in the source; their conditions may differ.
What was measured:
Assay type in all cases: in vivo, mouse
[1] = Body weight of Npc1−/− mice, weighed weekly; conditions: for effect on body weight (in words): Enbrel 200 μg twice a week, Humira 20 mg/kg three times a week, Remicade 6.25 mg/kg once a week; for body weight relative to initial weight at week 7: p<0.010
Method: (§1) Enbrel® (Amgen, USA) was administered via subcutaneous injection (200 μg/animal; Koca et al., 2008) in phosphate-buffered saline (PBS) twice a week starting at […] of age (n=7). Control group animals (n=7) were administered equal volumes of PBS subcutaneously. Humira® was administered 20 mg/kg three times a week (doses converted from human doses based on differential binding coefficients against murine and human TNF) (n=4) and Remicade® 6.25 mg/kg once a week (Deveci et al., 2008) (n=5).
Body weights of individual mice were recorded on a weekly basis. Tremor and locomotor analysis of both treated and control groups were conducted as described by Smith et al. (2009). The procedures are briefly detailed as follows:
Upon treatment with 200 μg Enbrel® for twice a week starting at 7 weeks of age, Npc1^−/− mice were weighed weekly until humane end point to monitor any possible effects exerted by drug treatment.

Npc1−/− mice [2] = assay: Open field rearing, manual count over 5 minutes (rearing and centre rearing); conditions: for rearing count (front limb support on side walls) / centre rearing count (no front-limb support): 5 min; for rearing count (front limb support on side walls): Remicade 6.25 mg/kg once a week; for rearing activity vs. controls (in words): FIG. 4; for centre rearing count (no front-limb support): Humira 20 mg/kg three times a week
Method: as §1
(§2) Spontaneous activity of each mouse was recorded weekly using both an automated activity monitor (AmLogger; Linton Instrumentation, UK) and manual counting (NPC mice have a jumping phenotype in late stages of disease that can be scored as rears in the automated system so manual counts were included for this reason). The activity monitor comprises an array of infrared beams to determine the activity and motility of the subject animal. After 5-minute acclimatization in the room, each mouse was placed in the ‘open-field’ (a plasticbox measuring 45×25×12 cm) with home cage bedding to be recorded for 5 minutes. A similar setup was used for the open field rearing study, where the number of times the mouse reared on its hind legs (either against the cage wall “rearing” or without support “centre rearing”) was counted manually for 5 minutes.
Activity levels of the mice (Npc1^−/−) were recorded and classified by either “rearing” (FIG. 4A; rearing sustained by front limb support on side walls of the open-field box) or “centre rearing” (FIG. 4B; rearing with no front-limb support). […] In particular, rearing activity was maintained in Enbrel®-treated mice until 10 weeks whilst mice in the control group were no longer able to rear without front limb support (1.71 rears vs. 0.00 rears; p=0.01).

Npc1−/− mice [3] = assay: Survival of Npc1−/− mice (humane end point); conditions: for effect on survival / lifespan (in words): Enbrel 200 μg/animal s.c. twice a week, Humira 20 mg/kg three times a week, Remicade 6.25 mg/kg once a week
Method: BALB/c mice with a mutation in the NIH allele of the Niemann Pick type Cl gene (NPCnih) were bred as heterozygotes to produce Npc1−/− (BALB/c npcnih/nih) and control genotypes (Pentchev et al., 1980). Breeding and treatment of mice were conducted as described previously (Smith et al., 2009). The humane end point of mice was defined as a loss of 10% weight within a 24 hour time frame. All procedures were conducted according to Animals (Scientific Procedures) Act 1986 under a valid Home Office License.
as §1
Upon treatment with […] Enbrel® for twice a week starting at 7 weeks of age, Npc1^−/− mice were weighed weekly until humane end point to monitor any possible effects exerted by drug treatment.

Npc1−/− mice [4] = assay: Locomotor activity, AmLogger automated activity monitor; conditions: Enbrel 200 μg twice a week
Method: as §1, §2

Npc1−/− mice [5] = assay: Gait analysis, CatWalk single paw parameters; conditions: Enbrel treatment, FIG. 7
Method: as §1
The CatWalk™ system (Noldus Information Technology, the Netherlands) was used for monitoring changes in movement patterns as indicative of any motor complications and to assess any gait improvement in response to treatment. Animals were subjected to CatWalk™ analysis biweekly, where a minimum of three ‘runs’ were collected per animal. The data collected were subsequently examined by CatWalk™ XT 10.0 software to produce a total of 177 inter-paw and intra-paw comparison parameters.
For this reason, it can be assumed that single paw parameters would reveal more sensitive indications of treatment benefits in the short time frame allowed by this acute disease model.

[6] = 9 weeks, mean±SEM, Enbrel 200 μg twice a week, control 0.429±0.30
[7] = 10 weeks, Enbrel 200 μg twice a week, control 0.00

Substance: Infliximab [Remicade]
- effect on body weight (in words) [1]: caused significant weight loss at weeks 8 and 9
- body weight relative to initial weight at week 7 ([1]; week 8, Remicade 6.25 mg/kg once a week, vs. 101.31%): 89.11%
- body weight relative to initial weight at week 7 ([1]; week 9, Remicade 6.25 mg/kg once a week, vs. 97.16%): 80.84%
- rearing count (front limb support on side walls) (Npc1−/− mice [2]; 8 weeks, mean±SEM, vs. 2.86±1.03, p=0.034): 7.80±1.71 rears
- rearing count (front limb support on side walls) (Npc1−/− mice [2]; 9 weeks, mean±SEM, vs. 2.00±2.52, p=0.039): 7.20±2.27 rears
- rearing activity vs. controls (in words) (Npc1−/− mice [2]; open field): sustained level of rearing activity starting from 7 weeks, higher than the two control groups (untreated and s.c. injected) and maintained up to 12 weeks
- effect on survival / lifespan (in words) (Npc1−/− mice [3]): Neither did Humira® or Remicade® impact mice survival

Substance: Etanercept [Enbrel]
- body weight relative to initial weight at 7 weeks ([1]; 200 μg Enbrel twice a week, time point not stated, vs. 87.46%, p=0.7270): 89.03%
- effect on body weight (in words) [1]: did not cause any significant difference in body weights
- time spent in rearing (Npc1−/− mice [4]; 8 weeks, 5 min recording, vs. 3.29±1.775, p=0.0447): 16.86 ± 5.79 s
- time spent in an active state (Npc1−/− mice [4]; 9 weeks, 5 min recording, vs. 143.43±17.625, p=0.0497): 208.14 ± 23.85 s
- activity parameters vs. vehicle treated control (in words) (Npc1−/− mice [4]; FIG. 6): displayed higher activity levels; also recorded: induced higher levels of activity parameters
- single paw gait parameters (in words) (Npc1−/− mice [5]): beneficial effects
- centre rearing count (no front-limb support) (Npc1−/− mice [2]; [6]): 1.71±0.61 rears
- centre rearing count (no front-limb support) (Npc1−/− mice [2]; [7]): 1.71 rears and 1.71±0.57 rears
- rearing activity vs. controls (in words) (Npc1−/− mice [2]; open field): displayed a higher level of rearing activity than control mice
- effect on survival / lifespan (in words) (Npc1−/− mice [3]): did not cause any significant difference in lifespan
- lifespan (Npc1−/− mice [3]; Enbrel 200 μg/animal twice a week starting at 7 weeks of age, vs. 11.72±0.59 weeks, p=0.4840): 11.26±0.09 weeks

Substance: Adalimumab [Humira]
- effect on body weight (in words) [1]: did not impact mice weight
- centre rearing count (no front-limb support) (Npc1−/− mice [2]; 8 weeks, mean±SEM, vs. 2.00±1.35, p=0.033): 10.00±3.58 rears
- centre rearing count (no front-limb support) (Npc1−/− mice [2]; [6]): 8.25±2.84 rears
- centre rearing count (no front-limb support) (Npc1−/− mice [2]; [7]): 0.00 rears
- centre rearing vs. controls and other treatments (in words) (Npc1−/− mice [2]; open field, FIG. 4B): more effective amongst the other treatments starting from 8 weeks; also recorded: sustained rearing activity beyond all control groups at later time points
- effect on survival / lifespan (in words) (Npc1−/− mice [3]): Neither did Humira® or Remicade® impact mice survival

Source: patent US20170165361A1, “TREATMENT OF LYSOSOMAL DISORDERS (ANTI-TNF THERAPY)” (Oxford University Innovation Limited, priority 2014, published 2017)
